What all share (assay type): cell-based
In one test the test system is CTLL-2 cells. Briefly: Inhibitory effect on CTLL-2 cell proliferation. Conditions: alamar blue, read-out: IC50 (nM) CTLL-2 (h). As for the experimental part: CTLL-2, P-STAT3 and TF-1 cells were seeded in a 96-well culture plate at a density of 20,000/well with 90 µL per well, and the blank well was an equal amount of complete medium. 10 ul of different compound dilutions were added to each plate row BC, DE, and FG, and 5% DMSO medium with equal volume of the compound was added to positive wells and negative wells, and the final concentration of DMSO was 0.5%. After incubating in a 37° C. incubator for 20 h, alamar blue was added, the plate was incubated for 4 h, the fluorescence intensity of each well under the conditions of […], 580 nm wavelength was measured, and the IC50 value was calculated.
(The colour change of resazurin is a common sign of viable cells or microbes.)

The test system of the next test is P-STAT3. Briefly: Effect of TYK2 inhibitor on P-STAT3 expression in PBMC induced by IFN-α (Table 3, P-STAT3 (h)). Conditions: Homo sapiens; P-STAT3 by ELISA, PBMC stimulated with IFN-α 5000 U/mL. As for the experimental part:
Whole blood was collected from healthy subjects, anticoagulated with heparin sodium, and PBMC (human peripheral blood mononuclear cells) were extracted. PBMC were seeded in 96-well culture plates at a density of 1*106/well. The initial concentration of the positive drug BMS986165 was 1000 nM, after diluting 10 times, the positive drug BMS986165 was diluted 8 concentrations by 3 times; the concentration of the other tested compounds was 333 nM. Positive wells and negative wells were added with the same volume of DMSO as the compound, and the final concentration of DMSO was 0.5%. After the compound was added, the cells were incubated at 37° C. for 1 h, and then stimulated by the addition of IFN-α at a final concentration of 5000 U/mL. An equal volume of medium was added to the negative wells and incubated for 15 min. The cells were centrifuged to remove the supernatant, and lysed, and the P-STAT3 was measured according to the instructions of the ELISA kit, the absorbance was read at 450 nm, and the IC50 value or inhibition rate was calculated.
CTLL-2, P-STAT3 and TF-1 cells were seeded in a 96-well culture plate at a density of 20,000/well with 90 µL per well, and the blank well was an equal amount of complete medium. […]
For orientation: ELISA stands for enzyme-linked immunosorbent assay.

A further test deals with JAK1/TYK2. In words: Cell level activity test of JAK1/TYK2 (IFN-α induced STAT3 phosphorylation in PBMC). Conditions: Homo sapiens; P-STAT3 by ELISA in PBMC, compound 1 h, IFN-α 5000 U/mL 15 min; read-out: IC50 nM (JAK 1 /TYK2). The protocol: IFN-α can induce the phosphorylation of STAT3 downstream of JAK1/TYK2 in PBMC, and by measuring the level of STAT3 phosphorylation, the activity of the compound on JAK1/TYK2 at the cell level can be reflected.
Whole blood was collected from healthy subjects, anticoagulated with heparin sodium, and PBMC (human peripheral blood mononuclear cells) were extracted. PBMC were seeded in a 96-well culture plates at a density of 1*106/well. Positive wells and negative wells were added with the same volume of DMSO as the compound, and the final concentration of DMSO was 0.5%. The compounds were incubated with the cells at 37° C. for 1 h, and then stimulated by adding IFN-α at a final concentration of 5000 U/mL, an equal volume of medium was added to the negative wells, and incubated for 15 min. The cells were centrifuged to remove the supernatant, then lysed, and P-STAT3 was measured according to the instructions of the ELISA kit, the absorbance was read at 450 nm, and the IC50 value or inhibition rate was calculated.

The next test deals with TF-1 cells. Briefly: Inhibitory effect on TF-1 cell proliferation. Conditions: Homo sapiens, alamar blue, read-out: IC50 (nM) TF-1 (h). As for the experimental part:
TF-1 cells were seeded in a 96-well culture plate at a density of 20,000/well with 80 µL per well, the blank well was an equal amount of complete medium, and 10 µL of the compound dilution solution was added to the 96-well plate B1-11, C1-11, E1-11, F1-11, positive and negative wells were added with 5% DMSO medium equal to the volume of the compound, and the final concentration of DMSO was 0.5%. After 30 min, GM-CSF with a final concentration of 2 ng/mL was added to rows B, C, and D (positive wells), and the remaining wells (rows E, F, and G) were added with the same volume of medium as cytokines (negative wells). After incubation for 44 h at 37° C. in 5% CO2, alamar blue was added, the plate was incubated for 4 h, the fluorescence intensity of each well under the conditions of […], 580 nm wavelength was measured, and the IC50 value was calculated.
CTLL-2, P-STAT3 and TF-1 cells were seeded in a 96-well culture plate at a density of 20,000/well with 90 µL per well, and the blank well was an equal amount of complete medium. 10 ul of different compound dilutions were added to each plate row BC, DE, and FG, and 5% DMSO medium with equal volume of the compound was added to positive wells and negative wells, and the final concentration of DMSO was 0.5%. […]

SMILES strings stand for the structures. Where only a bound is given, the exact number is not on record here.

Regarding `CC(=O)Nc1cc2c(-c3ccc4c(n3)C3(CCOC3)OCC4)cn(C)c2cn1` (stereo not shown) [Example 3, N-(1-Methyl-3-(4,5,5′,6′-Tetrahydro-2H-Spiro[Furan-3,8′-Pyrano[3,4-b]Pyridine]-2′-yl)-1H-Pyrrolo[2,3-c]Pyridin-5-yl)Acetamide], the IC50 is > 10000 nM with CTLL-2 cells, 21.4 nM in the test on P-STAT3, 21.4 nM in the test on JAK1/TYK2 and 5290 nM in the test with TF-1 cells.

For the origin of these results see patent US20230339977A1, “SUBSTITUTED HETEROARYL COMPOUND, AND COMPOSITION AND APPLICATION THEREOF” (SUNSHINE LAKE PHARMA CO., LTD., priority 2020, published 2023).
